Experimental data taken from patent US10953027B2, “Active agents and methods of their use for the treatment of metabolic disorders and nonalcoholic fatty liver disease” (Flagship Pioneering Innovations V, Inc., priority 2018, dated 2021).

Columns and labels:
Type in all cases: cell-based
[1] = test system: Primary human subcutaneous adipocytes; experiment: Glucose uptake in human subcutaneous adipocytes, insulin resistant model
Protocol: As described above, primary human subcutaneous adipocytes were differentiated for two weeks prior to treatment. To induce an insulin resistant state, cells were treated in serum free Dulbecco's Modified Eagle Medium (high glucose) and […] for 24 hours. Cells were simultaneously treated with compounds diluted in DMSO for 24 hours. As described above, after 24 hours, media was exchanged for assay buffer and the compounds were added again but in the presence of approximately 1 nM insulin. Cells were washed and lysed after 2 hours and glucose uptake was measured. […] Statistical changes in glucose uptake were determined by way ANOVA and compared to DMSO.

Mouse 3T3-L1 cells = experiment: Mouse adipocyte lipolysis assay; details: Mus musculus, 3T3-L1, 24 hours, read-out: Lipolysis Free Fatty Acids % DMSO
Protocol: Once the cells became confluent, they were seeded into a tissue culture treated 96 well plate. […] After 14 days of differentiation, cells were treated with compounds of interest. After 24 hours post-treatment, the cell viability was assessed using CellTiter-Glo Luminescent Cell Viability Assay from Promega, and lipolysis was determined using Lipolysis Assay Kit from ZenBio.

Mouse myocyte = Mouse myocyte lipolysis assay; details: Mus musculus; 0.5 mM; read-out: Free glycerol % DMSO
Protocol: Cells were obtained from ATCC and cultured in Dulbecco's Modified Eagle's medium (DMEM) containing 20% fetal bovine serum and 1% penicillin/streptomycin at 37° C. in an incubator with 5% CO2. Once the cells became confluent, they were seeded into a tissue culture treated 96 well plate. The next day, the medium containing DMEM with 2% equine serum was used to start differentiation. Once cells were fully differentiated, they were treated with indicated compounds.

[2] = test system: Primary human subcutaneous adipocytes; experiment: Glucose uptake in human subcutaneous adipocytes, insulin sensitive model
Protocol: Primary human subcutaneous adipocytes (Zen Bio, Research Triangle Park, N.C.) were differentiated for two weeks prior to treatment. Cells were treated with indicated compounds diluted in (dimethyl-sulfoxide) DMSO in serum free medium for 24 hours in triplicate. After 24 hours, media was exchanged for assay buffer and the compounds were added again but in the presence of approximately 1 nM insulin. Glucose uptake was initiated with the addition of a cocktail containing 2-deoxyglucose and ^3H-2-deoxyglucose and allowed to incubate for 2 hours. Cells were washed, lysed and glucose uptake was measured as counts per well. As an assay control, 100 nM of insulin was used during the 2 hours of glucose uptake. […] Statistical changes in glucose uptake were determined by way ANOVA and compared to DMSO.

naïve CD4+ T cells = experiment: Human regulatory T cell differentiation assay; details: 6 days
Protocol: Peripheral blood mononuclear cells (PBMCs) from whole blood donated by health volunteers were separated by Ficoll-Paque gradient centrifugation and naïve CD4^+ T cells were subsequently isolated using magnet beads (EasySep™ Human Naïve CD4^+ T Cell Isolation Kit, Cambridge, Mass.). For regulatory T cell (Treg) differentiation assay, naïve CD4^+ T cells were cultured (1-10×10^4 cells) in CTS OpTmizer medium for 6 days and stimulated with 5 ng/ml TGF-β, 100 U/ml IL-2, and ImmunoCult™ Human […] T Cell Activator; Stemcell #10990) with/without our Compounds. Cell viability was determined using a viability dye (eBioscience Fixable Viability Dye eFluor 780: ThermoFisher 65-0865-14) at 1:500 dilution. The cells were gated for Treg, defined as Live, CD11c^−, CD14^−, CD19^−, CD8^−, CD4^+, CD3^+, CD25^+, FOXP3^+. Percent (%) Tregs were calculated as percentage of CD4^+, CD25^+, FOXP3^+ cells over total CD4^+ T cells. Statistical analysis was performed with GraphPad Prism Software Using One-Way ANOVA.

Caco-2 colonocytes = experiment: Human Caco-2 barrier integrity assay (TEER); details: 48 hours
Protocol: Caco-2 colonocytes were maintained at 37° C. and 5% CO2 in Dulbecco's Modified Eagle Medium (DMEM) and supplemented with 10% FBS, 1% NEAA, 1% penicillin-streptomycin. At 70-80% confluency, cells were trypsinized and seeded in 0.4 cm^2 transwell collagen I coated membranes with supplemented DMEM in both apical and basolateral compartments. Cells were seeded at a density of 200,000 cells per well and maintained for 10 days to form a polarized barrier with a TransEpithelial Electrial Resistance (TEER) reading above 1000Ω. On the first day of the assay, initial TEER readings were taken and cytokines were added to the basolateral media (50 ng/mL TNFα, 25 ng/mL IFNγ and 10 ng/mL IL-1β) to reduce barrier integrity while compounds diluted in (dimethylsulfoxide) DMSO were added to the apical media in triplicate. After 48 hours, TEER readings were taken again and viability was measured by CellTiter 96® AQueous One Solution Cell Proliferation Assay (Promega). The percent change in TEER over the 48 hours was determined and normalized to the 0.1% DMSO control (Table 6).

[3] = test system: Human Peripheral Blood Monocytes (PBMCs); experiment: Cytokine release from human PBMCs; details: 100 μM, LPS, 24 hours
Protocol: Human donor blood (8 mL) was collected in sodium citrate CPT tubes and centrifuged at 1,600×g for 20 minutes at room temperature. […] PBMCs samples were centrifuged at 400×g for 10 minutes at 10° C. […] PBMCs were filtered through a 70 micron mesh to remove any cellular debris. […] PBMCs in a 96-well plate were rested for 30 minutes in a 37° C., 5% CO2 incubator, then subsequently treated with 10 μl of indicated compound. After 2 hours 10 μL of LPS (O111:B4) 1 mg/mL was added to test wells. After 24 hours of incubation at 37° C., 5% CO2, 100 μL of cell supernatant was collected and transferred to a 96-well plate (non-tissue treated, flat bottom). The plate was centrifuged at 350×g for 5 minutes at room temperature, and then the clear supernatant transferred to a new 96-well plate (non-tissue treated, flat bottom). The remaining cells were tested for viability using CellTiter-Glo® Luminescent Cell Viability Assay (Promega). The supernatant was analyzed for TNFα, IL-6 and IL-1β (kit LXSAHM-03; R&D Systems), using Luminex Immunoassay Technology (MAGPIX System). Cytokine levels of LPS treated DMSO control samples were set to 100%, and compound treated samples were expressed relative to this (Table 13).

C[C@@H](O)CCO [(R)-1,3-Butanediol, (3R)-butane-1,3-diol] was tested, and the “Insulin Resistant % DMSO (glucose uptake)” value (shortened to “Insulin Resistant % DMSO”) ([1]; 100 μM) was “= (50%> ≤110%: =)”, the “Insulin Resistant % DMSO” value ([1]; 500 μM) was “= (50%> ≤110%: =)” and the activity at 100 µM (Mouse 3T3-L1 cells; 100 μM) was 50 to 70%. For the same compound, the activity at 500 µM (Mouse 3T3-L1 cells; 0.5 mM) was 50 to 70%, the activity at 500 µM (Mouse myocyte) was 70 to 90% and the “Insulin Sensitive % DMSO (glucose uptake)” value (“Insulin Sensitive % DMSO” below) ([2]; 100 μM) was “= (50%> ≤110%: =)”. The “Insulin Sensitive % DMSO” value ([2]; 500 μM) was “++ (140%≥ ≤200%: ++)”, the insulin-mediated glucose uptake ([2]; insulin sensitive model, compared to DMSO) was “significantly enhanced insulin-mediated glucose uptake” and the “Cell viability % DMSO” value (naïve CD4+ T cells; 100 uM) was “= (90%≥ ≤110%: =)”. For the same compound, the “Cell viability % DMSO” value (naïve CD4+ T cells; 0.5 mM) was “= (90%≥ ≤110%: =)” and the activity at 500 µM (naïve CD4+ T cells; Homo sapiens, CD4+ T, 144 h, 0.5 mM, read-out: Treg induction % DMSO) was 90 to 110%.

In the case of CCC(=O)O [Propionate, propionate], the “% Change in TEER from DMSO” value (Caco-2 colonocytes; 1 mM + cytokines) is reported as “+ (125%> ≤150%: +)”, the “% Change in TEER from DMSO” value (Caco-2 colonocytes; 3 mM + cytokines) is reported as “++ (150%≥ ≤200%: ++)” and the “Insulin Resistant % DMSO” value ([1]; 3 mM) is reported as “= (50%> ≤110%: =)”. The “IL6 % DMSO control” value [3] was “+ ((+) 50%≥ <90% DMSO)”, the “ILβ % DMSO control” value [3] was “+ ((+) 50%≥ <90% DMSO)” and the “TNFα % of DMSO control” value [3] was “+ ((+) 50%≥ <90% DMSO)”. For the same compound, the “Insulin Sensitive % DMSO” value ([2]; 3 mM) was “= (50%> ≤110%: =)”.

In the case of C[C@@H](O)CC(=O)O [(R) BHB], the “Insulin Resistant % DMSO” value ([1]; 2 mM) is reported as “+ (110%> ≤140%: +)”, the “Insulin Resistant % DMSO” value ([1]; 20 mM) is reported as “= (50%> ≤110%: =)” and the “Insulin Sensitive % DMSO” value ([2]; 2 mM) is reported as “++ (140%≥ ≤200%: ++)”. The “Insulin Sensitive % DMSO” value ([2]; 20 mM) was “++ (140%≥ ≤200%: ++)”.

In the case of O=C[C@@H](O)[C@H](O)[C@H](O)CO [arabinose], the “Insulin Resistant % DMSO” value ([1]; 0.5 mM) is reported as “= (50%> ≤110%: =)”, the “Insulin Resistant % DMSO” value ([1]; 1 mM) is reported as “= (50%> ≤110%: =)” and the “IL6 % DMSO control” value [3] is reported as “+ ((+) 50%≥ <90% DMSO)”. The “ILβ % DMSO control” value [3] was “= ((=) 90%≥ <110% DMSO)”, the “TNFα % of DMSO control” value [3] was “+ ((+) 50%≥ <90% DMSO)” and the “Insulin Sensitive % DMSO” value ([2]; 0.5 mM) was “= (50%> ≤110%: =)”. For the same compound, the “Insulin Sensitive % DMSO” value ([2]; 1 mM) was “++ (140%≥ ≤200%: ++)”.
